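How tested: cells in 96-well plates exposed to compound for 48 hours at five concentrations. At the GI50, growth is halved. The concentration for full growth arrest is given as TGI.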

What all share (assay): inhibition of tumour cell growth, NCI panel, 48 h
Assay [1] has as its system HL-60(TB) leukemia.
For assay [2], the system named is DU-145 prostate.
The subject of assay [3] is SK-MEL-28 melanoma.
In assay [4] the test system is HS 578T breast.
The test system of assay [5] is MDA-MB-231 breast.
For assay [6], the system named is NCI-H23 lung.
Assay [7] relates to NCI-H226 lung.
Assay [8] deals with UACC-257 melanoma.
The test system of assay [9] is OVCAR-3 ovarian.
Assay [10] concerns HOP-92 NSCLC.
The subject of assay [11] is SR leukemia.

As for `O=C(O)Cc1ccc([N+](=O)[O-])cc1[N+](=O)[O-]`, the TGI in assay [1], in [2], in assay [3], in assay [4], in [5] and in assay [6] was > 100 µM throughout. For the same molecule, the TGI in assay [7], in assay [8] and in assay [9] was > 100 µM in each case.
As for `CON(C)C(=O)C(Cc1ccccc1)NC(=O)OCc1ccccc1` (configuration not stated), the TGI in assay [1], in assay [3], in assay [10], in assay [6], in [11] and in assay [8] was > 100 µM each time. Further, the TGI in [9] was > 100 µM.
Take `O=C1/C(=C\c2ccc(Cl)cc2Cl)Sc2scc(-c3ccc(O)c(O)c3)[n+]21`: the TGI is 29.8 µM in assay [1]; 41.9 µM in assay [2]; 31.7 µM in [3]; > 100 µM in assay [4]; 61.2 µM in assay [5]; 23.1 µM in [10]. The TGI in assay [6] was determined as 31.3 µM; in assay [7], 35.4 µM; in assay [8], 71.3 µM; in assay [9], 23.2 µM.
Take `Cc1ccc(C(=O)OC(C(=O)O)C(OC(=O)c2ccc(C)cc2)C(=O)O)cc1` (configuration not stated) (tested in a mixture with another compound): the TGI in assay [1] stood at 4.08 µM; in assay [3], 19.7 µM; in [10], 11.8 µM; in [6], 12.8 µM; in assay [7], 24.8 µM; in assay [8], 13.7 µM. This molecule yielded a TGI in assay [9] of 22.4 µM.
As for `COc1ccc(C(SCCO)(c2ccccc2)c2ccc(OC)cc2)cc1`, the TGI was 47.2 µM in assay [1]; 30.6 µM in [2]; 34.1 µM in assay [3]; > 44.1 µM in assay [4]; 25.4 µM in assay [5]; 29.1 µM in assay [10]. The TGI was found to be 38.1 µM in assay [6], 28.6 µM in assay [7], 30.5 µM in assay [8] and 33.9 µM in assay [9].
As for `C=C1C(=O)O[C@@H]2/C=C(C)/C=C\[C@@H]3O[C@@]3(C)C[C@@H](O)C12` (some centres not stated), the TGI is 8.93 µM in assay [1]; 14.5 µM in assay [2]; 35.8 µM in assay [3]; > 100 µM in assay [4]; 20.4 µM in [10]; 33.3 µM in [6]. The results for the TGI in assay [7], in [8] and in assay [9] were 29.7 µM, 28.1 µM and 29.8 µM, respectively.
Regarding `O=S(=O)(O)c1cc(N=Nc2c(O)ccc3ccccc23)cc2c(S(=O)(=O)O)cccc12`, the TGI in assay [1], in [3], in assay [4], in [5], in assay [10] and in [11] was > 100 µM throughout. Besides, the TGI in [7], in assay [8] and in [9] was > 100 µM each time.
Consider `Cc1[nH]c(=O)nc2sc(=NC3CCCCC3)n(C3CCCCC3)c(=O)c12`, for which the TGI in assay [1], in [2], in assay [3], in assay [5], in [10] and in [6] was > 100 µM each time. The TGI in assay [7], in assay [8] and in [9] was > 100 µM throughout.
In the case of `COc1cc(OCCN(C)C)c2[nH]c(C(=O)N3CC(CCl)c4ccc(N)cc43)cc2c1` (configuration not stated), the TGI in [2] was 1.02 µM; in [5] it was 9.37 µM; in assay [10], 0.617 µM; in assay [6], 0.316 µM; in assay [11], > 100 µM; in assay [7], 2.58 µM. In addition, the results for the TGI in assay [8] and in assay [9] were 0.329 µM and 0.607 µM, respectively.
`COc1cccc(-c2cc(=O)c3cc(N4CCCCC4)ccc3[nH]2)c1`: the TGI in assay [2] was > 100 µM; in assay [3], > 100 µM; in [4] it was > 86.1 µM; in assay [5], > 100 µM; in assay [10], > 100 µM; in assay [6], > 20.4 µM. For the same molecule, the TGI is 0.0652 µM in [7], > 100 µM in [8] and 13.3 µM in assay [9].
With `Oc1ccc(NCn2c(=S)sc3ccccc32)cc1`, the TGI in assay [1], in assay [2], in [3], in [4], in [5] and in [10] was > 100 µM in each case. Further, the TGI in assay [6], in assay [8] and in [9] was > 100 µM in each case.
Consider `COc1cc(-c2cccs2)sc1-c1cccs1`, for which the TGI in [1] is 36.6 µM; in [3], > 100 µM; in [10] it was 78.9 µM; in assay [6], > 100 µM; in assay [11], 61.8 µM; in [7], > 100 µM. The TGI in [8] and in [9] was > 100 µM each time.
Turning to `CON(C)C(=O)C(C)N(Cc1ccccc1)Cc1ccccc1` (configuration not stated), the TGI in assay [1], in assay [2], in assay [3], in assay [4], in assay [10] and in assay [6] was > 100 µM each time. The TGI in [11], in [7], in assay [8] and in [9] was > 100 µM each time.
`C=C1c2nc3ccccc3n2C=C(c2ccc(OC)cc2)N1c1ccc(OC)cc1`: the TGI in assay [1] was > 100 µM; in assay [2], > 100 µM; in [5] it was 75.9 µM; in assay [10], 85.5 µM; in assay [6], 78.2 µM; in [11], > 100 µM. Further, the TGI is 43.1 µM in assay [7], > 100 µM in [8] and 32.2 µM in assay [9].
`COc1ccc2oc3c(C)cc4c(OC)nnc(OC)c4c3c2c1`: the TGI in [1], in assay [2], in assay [3], in assay [4], in assay [5] and in assay [10] was > 100 µM throughout. The TGI in assay [6], in [7], in assay [8] and in [9] was > 100 µM in each case.
With `O=c1cc(-c2ccc3c(c2)OCO3)[nH]c2cc3c(cc12)OCO3`, the TGI in [1] is 66.6 µM; in [3] it was > 100 µM; in assay [10], > 100 µM; in assay [6] it was > 100 µM; in assay [11], 52.1 µM; in assay [7], > 100 µM. The TGI in [9] amounted to 43.2 µM. In addition, the GI50 in assay [9] was 19.5 µM.
Turning to `CC1NC(=O)C(C)C(c2ccccc2)N(N=O)C1c1ccccc1` (configuration not stated), the TGI in assay [1] is 61.5 µM; in assay [3], > 100 µM; in assay [10], > 100 µM; in assay [6], > 100 µM; in assay [7], > 100 µM; in assay [8], > 100 µM. In addition, the TGI in [9] was > 100 µM.
As for `Cc1ccc(S[C@@H](C)[C@@](O)(CF)CN(Cc2ccccc2)C(=O)C(F)(F)F)cc1`, the TGI in [1] was 46.2 µM; in assay [2], 53.2 µM; in assay [3] it was > 100 µM; in assay [4], 61.7 µM; in assay [5], 54.3 µM; in assay [10], > 100 µM. Further, the TGI in [6] is 56.7 µM; in assay [8], 56.8 µM; in [9], 27 µM.
Regarding `CCn1cnc2c(=S)nc(N)[nH]c21`, the TGI in assay [1], in assay [3], in assay [6], in [11], in assay [7] and in [8] was > 100 µM each time. The TGI in assay [9] is > 100 µM.
Take `CCOC(=O)c1cc(-c2ccc(OC)cc2)c([N+](=O)[O-])n1C`: the TGI in [1], in [2], in [4], in assay [10], in assay [6] and in assay [11] was > 10 µM throughout. Besides, the TGI in assay [7], in assay [8] and in assay [9] was > 10 µM in each case.
As to `CCOC(=O)c1ccc(-c2cc(C)no2)[nH]1`, the TGI in assay [1], in assay [2], in assay [3], in [5], in assay [10] and in [6] was > 100 µM each time. For the same molecule, the TGI in [7], in assay [8] and in assay [9] was > 100 µM in each case.
`CCNC(=O)c1ccc(C)c(N=NN(C)C)c1`: the TGI in assay [3], in [10], in [6], in assay [8] and in assay [9] was > 100 µM in each case.
As to `COc1ccc(NC(=S)c2ccc(CN3CCCCC3)s2)cc1`, the TGI in [1] was 31.9 µM; in [2], > 100 µM; in assay [3], 33.8 µM; in [4], 43.8 µM; in assay [6], 29.5 µM; in assay [11] it was 51.8 µM. Besides, the values for the TGI in assay [8] and in assay [9] were 35.6 µM and > 100 µM, respectively.
Take `CC(C)C(NC(=O)Oc1ccccc1)C(=O)NC1c2c(Br)sc(Br)c2C(=O)C1O` (configuration not stated): the TGI in assay [1] is > 25 µM; in assay [2] it was > 25 µM; in assay [3], 8.67 µM; in assay [4], > 25 µM; in assay [5] it was 9.41 µM; in assay [6] it was 8.41 µM. Also, the results for the TGI in [7], in [8] and in [9] were > 25 µM, 8.66 µM and 8.21 µM, respectively.
With `O=C(CC1Sc2ccccc2NC1=O)Nc1ccccc1[N+](=O)[O-]` (configuration not stated), the TGI in assay [1], in assay [3], in assay [10], in [6], in assay [11] and in assay [7] was > 100 µM each time. For the same molecule, the TGI in [8] and in assay [9] was > 100 µM each time.
Take `CO[C@](C(=O)OC[C@H]1[C@@H](COC(C)=O)[C@@H]2O[C@H]1c1cc3c(cc12)OCO3)(c1ccccc1)C(F)(F)F`: the TGI in [2], in [3], in assay [5], in assay [10], in assay [6] and in [11] was > 100 µM in each case. For the same molecule, the TGI in [8] and in assay [9] was > 100 µM in each case.
For `Cc1cc(OC(=O)Nc2cccc3ccccc23)c(C(C)C)cc1C(=S)Nc1ccccc1`, the TGI is 15.1 µM in [1]; 82 µM in assay [2]; 35.3 µM in assay [3]; 55.2 µM in [4]; 34.3 µM in assay [6]; 33.5 µM in assay [11]. The TGI was determined as 50.5 µM in [8] and 33.5 µM in assay [9].
Regarding `CCOC(=O)CCCSCCCC(=O)CCCSCCCC(=O)OCC`, the TGI in [1], in [2], in assay [3], in assay [5], in assay [10] and in assay [6] was > 100 µM in each case. Moreover, the TGI in [11], in assay [8] and in [9] was > 100 µM in each case.
As to `Nc1nc(Cl)cc(OCC2(CO)CC=CC2)n1`, the TGI in [1], in assay [2], in assay [3], in [4], in assay [10] and in assay [6] was > 100 µM throughout. Further, the TGI in [11], in assay [7], in [8] and in assay [9] was > 100 µM throughout.
With `COc1ccc(C2Oc3cc(OC)c(OC)cc3C2CCl)cc1OC` (configuration not stated), the TGI in assay [1], in assay [3], in assay [10], in assay [11], in [7] and in assay [8] was > 100 µM throughout. Moreover, the TGI in [9] was > 100 µM.
For the molecule `CCOC(=O)C12OC(OCC)(CC1(OCC)OCC)C1(CC1)C2=O` (configuration not stated), the TGI in assay [2], in [3], in [5], in assay [10], in assay [6] and in assay [7] was > 100 µM each time. Further, the TGI in assay [8] and in [9] was > 100 µM in each case.
